# Source: patent publication US20190290892A1, “METHODS OF DETERMINING DOSING OF A THERAPEUTIC AGENT BASED ON MEASURED LEVELS OF A METABOLITE” (Clear Creek Bio, Inc., priority 2018, published 2019)
# Key:
# [1] = Burris, 650 mg/m^2 brequinar (days 1, 8 and 15) with 75 mg/m^2 cisplatin (day 1); cited from earlier work
# [2] = Adverse events in subjects receiving brequinar intravenously once a week; assay type: in vivo, human; details: i.v. once a week, 209 subjects
# advanced lung cancer = details: Gralla, weekly rapid iv injection from 5 mg/kg (200 mg/m^2), previously treated patients with advanced lung cancer; cited from earlier work
structure (smiles),measurement,setting,value
"Cc1c(-c2ccc(-c3ccccc3F)cc2)nc2ccc(F)cc2c1C(=O)O [brequinar, 6-fluoro-2-(2′-fluoro-1,1′ biphenyl-4-yl)-3-methyl-4-quinoline carboxylic acid]",effect of combination on individual drug pharmacokinetic parameters,[1],without significant modifications of individual drug pharmacokinetic parameters
same,"All Body Systems, No. of Patients Experiencing the AE, 5y Max Grade 1",[2],36
same,"All Body Systems, No. of Patients Experiencing the AE, 5y Max Grade 2",[2],76
same,"All Body Systems, No. of Patients Experiencing the AE, 5y Max Grade 3",[2],55
same,"All Body Systems, No. of Patients Experiencing the AE, 5y Max Grade 4",[2],35
same,"Anemia, No. of Patients",[2],90
same,"Anemia, No. of Patients Experiencing the AE, 5y Max Grade 1",[2],14
same,"Anemia, No. of Patients Experiencing the AE, 5y Max Grade 2",[2],48
same,"Anemia, No. of Patients Experiencing the AE, 5y Max Grade 3",[2],23
same,"Anemia, No. of Patients Experiencing the AE, 5y Max Grade 4",[2],5
same,"Anorexia, No. of Patients",[2],15
same,"Anorexia, No. of Patients Experiencing the AE, 5y Max Grade 1",[2],11
same,"Anorexia, No. of Patients Experiencing the AE, 5y Max Grade 2",[2],3
same,"Anorexia, No. of Patients Experiencing the AE, 5y Max Grade 3",[2],1
same,"Anorexia, No. of Patients Experiencing the AE, 5y Max Grade 4",[2],0
same,"Anorexia, Percent",[2],7.2%
same,"Constipation, No. of Patients",[2],10
same,"Constipation, No. of Patients Experiencing the AE, 5y Max Grade 1",[2],6
same,"Constipation, No. of Patients Experiencing the AE, 5y Max Grade 2",[2],2
same,"Constipation, No. of Patients Experiencing the AE, 5y Max Grade 3",[2],1
same,"Constipation, No. of Patients Experiencing the AE, 5y Max Grade 4",[2],0
same,"Constipation, Percent",[2],4.8%
same,"Diarrhea, No. of Patients",[2],77
same,"Diarrhea, No. of Patients Experiencing the AE, 5y Max Grade 1",[2],43
same,"Diarrhea, No. of Patients Experiencing the AE, 5y Max Grade 2",[2],21
same,"Diarrhea, No. of Patients Experiencing the AE, 5y Max Grade 3",[2],10
same,"Diarrhea, No. of Patients Experiencing the AE, 5y Max Grade 4",[2],3
same,"Dyspepsia, No. of Patients",[2],7
same,"Dyspepsia, No. of Patients Experiencing the AE, 5y Max Grade 1",[2],6
same,"Dyspepsia, No. of Patients Experiencing the AE, 5y Max Grade 2",[2],1
same,"Dyspepsia, No. of Patients Experiencing the AE, 5y Max Grade 3",[2],0
same,"Dyspepsia, No. of Patients Experiencing the AE, 5y Max Grade 4",[2],0
same,"Dyspepsia, Percent",[2],3.3%
same,"Fatigue, No. of Patients",[2],33
same,"Fatigue, No. of Patients Experiencing the AE, 5y Max Grade 1",[2],23
same,"Fatigue, No. of Patients Experiencing the AE, 5y Max Grade 2",[2],8
same,"Fatigue, No. of Patients Experiencing the AE, 5y Max Grade 3",[2],2
same,"Fatigue, No. of Patients Experiencing the AE, 5y Max Grade 4",[2],0
same,"Fever, No. of Patients",[2],11
same,"Fever, No. of Patients Experiencing the AE, 5y Max Grade 1",[2],4
same,"Fever, No. of Patients Experiencing the AE, 5y Max Grade 2",[2],7
same,"Fever, No. of Patients Experiencing the AE, 5y Max Grade 3",[2],0
same,"Fever, No. of Patients Experiencing the AE, 5y Max Grade 4",[2],0
same,"Fever, Percent",[2],5.3%
same,"Granulocytopenia, No. of Patients",[2],37
same,"Granulocytopenia, No. of Patients Experiencing the AE, 5y Max Grade 1",[2],16
same,"Granulocytopenia, No. of Patients Experiencing the AE, 5y Max Grade 2",[2],17
same,"Granulocytopenia, No. of Patients Experiencing the AE, 5y Max Grade 3",[2],3
same,"Granulocytopenia, No. of Patients Experiencing the AE, 5y Max Grade 4",[2],5
same,"Headache, No. of Patients",[2],7
same,"Headache, No. of Patients Experiencing the AE, 5y Max Grade 1",[2],4
same,"Headache, No. of Patients Experiencing the AE, 5y Max Grade 2",[2],3
same,"Headache, No. of Patients Experiencing the AE, 5y Max Grade 3",[2],0
same,"Headache, No. of Patients Experiencing the AE, 5y Max Grade 4",[2],0
same,"Headache, Percent",[2],3.3%
same,"Infection, No. of Patients",[2],7
same,"Infection, No. of Patients Experiencing the AE, 5y Max Grade 1",[2],4
same,"Infection, No. of Patients Experiencing the AE, 5y Max Grade 2",[2],3
same,"Infection, No. of Patients Experiencing the AE, 5y Max Grade 3",[2],0
same,"Infection, No. of Patients Experiencing the AE, 5y Max Grade 4",[2],0
same,"Infection, Percent",[2],3.3%
same,"Leukopenia, No. of Patients",[2],69
same,"Leukopenia, No. of Patients Experiencing the AE, 5y Max Grade 1",[2],26
same,"Leukopenia, No. of Patients Experiencing the AE, 5y Max Grade 2",[2],31
same,"Leukopenia, No. of Patients Experiencing the AE, 5y Max Grade 3",[2],10
same,"Leukopenia, No. of Patients Experiencing the AE, 5y Max Grade 4",[2],2
same,"Leukopenia, Percent",[2],33.0%
same,"Mucositis, No. of Patients",[2],52
same,"Mucositis, No. of Patients Experiencing the AE, 5y Max Grade 1",[2],23
same,"Mucositis, No. of Patients Experiencing the AE, 5y Max Grade 2",[2],15
same,"Mucositis, No. of Patients Experiencing the AE, 5y Max Grade 3",[2],11
same,"Mucositis, No. of Patients Experiencing the AE, 5y Max Grade 4",[2],3
same,"Nausea, No. of Patients",[2],91
same,"Nausea, No. of Patients Experiencing the AE, 5y Max Grade 1",[2],59
same,"Nausea, No. of Patients Experiencing the AE, 5y Max Grade 2",[2],19
same,"Nausea, No. of Patients Experiencing the AE, 5y Max Grade 3",[2],12
same,"Nausea, No. of Patients Experiencing the AE, 5y Max Grade 4",[2],1
same,"Pain Inject Site, No. of Patients",[2],24
same,"Pain Inject Site, No. of Patients Experiencing the AE, 5y Max Grade 1",[2],24
same,"Pain Inject Site, No. of Patients Experiencing the AE, 5y Max Grade 2",[2],0
same,"Pain Inject Site, No. of Patients Experiencing the AE, 5y Max Grade 3",[2],0
same,"Pain Inject Site, No. of Patients Experiencing the AE, 5y Max Grade 4",[2],0
same,"Pain, Abdominal, No. of Patients",[2],8
same,"Pain, Abdominal, No. of Patients Experiencing the AE, 5y Max Grade 1",[2],4
same,"Pain, Abdominal, No. of Patients Experiencing the AE, 5y Max Grade 2",[2],3
same,"Pain, Abdominal, No. of Patients Experiencing the AE, 5y Max Grade 3",[2],1
same,"Pain, Abdominal, No. of Patients Experiencing the AE, 5y Max Grade 4",[2],0
same,"Pain, Abdominal, Percent",[2],3.8%
same,"Rash, No. of Patients",[2],53
same,"Rash, No. of Patients Experiencing the AE, 5y Max Grade 1",[2],26
same,"Rash, No. of Patients Experiencing the AE, 5y Max Grade 2",[2],15
same,"Rash, No. of Patients Experiencing the AE, 5y Max Grade 3",[2],9
same,"Rash, No. of Patients Experiencing the AE, 5y Max Grade 4",[2],3
same,"Somnolence, No. of Patients",[2],9
same,"Somnolence, No. of Patients Experiencing the AE, 5y Max Grade 1",[2],7
same,"Somnolence, No. of Patients Experiencing the AE, 5y Max Grade 2",[2],2
same,"Somnolence, No. of Patients Experiencing the AE, 5y Max Grade 3",[2],0
same,"Somnolence, No. of Patients Experiencing the AE, 5y Max Grade 4",[2],0
same,"Somnolence, Percent",[2],4.3%
same,"Stomatitis, No. of Patients",[2],60
same,"Stomatitis, No. of Patients Experiencing the AE, 5y Max Grade 1",[2],32
same,"Stomatitis, No. of Patients Experiencing the AE, 5y Max Grade 2",[2],20
same,"Stomatitis, No. of Patients Experiencing the AE, 5y Max Grade 3",[2],7
same,"Stomatitis, No. of Patients Experiencing the AE, 5y Max Grade 4",[2],1
same,"Thrombocytopenia, No. of Patients",[2],94
same,"Thrombocytopenia, No. of Patients Experiencing the AE, 5y Max Grade 1",[2],26
same,"Thrombocytopenia, No. of Patients Experiencing the AE, 5y Max Grade 2",[2],31
same,"Thrombocytopenia, No. of Patients Experiencing the AE, 5y Max Grade 3",[2],16
same,"Thrombocytopenia, No. of Patients Experiencing the AE, 5y Max Grade 4",[2],21
same,"Thrombocytopenia, Percent",[2],45.0%
same,"Vomit, No. of Patients",[2],73
same,"Vomit, No. of Patients Experiencing the AE, 5y Max Grade 1",[2],32
same,"Vomit, No. of Patients Experiencing the AE, 5y Max Grade 2",[2],24
same,"Vomit, No. of Patients Experiencing the AE, 5y Max Grade 3",[2],12
same,"Vomit, No. of Patients Experiencing the AE, 5y Max Grade 4",[2],5
"NC(=O)c1[nH]nc([C@@H]2O[C@H](CO)[C@@H](O)[C@H]2O)c1O [pyrazofurin, 5-[(2S,3R,4S,5R)-3,4-dihydroxy-5-(hydroxymethyl)oxolan-2-yl]-4-hydroxy-1H-pyrazole-3-carboxamide]",therapeutic activity,advanced lung cancer,little therapeutic value as a single agent
